Molecules are shown by their SMILES. ≈ marks a conversion by molar mass, not a printed value.

Data set [1] addresses T1, human C5a receptor (CD88) (Homo sapiens, UniProt P21730).
T1 construct: expressed in transfected cells; host or cells: rat basophilic leukemia (RBL) cells, stably transfected
T1 sequence (P21730 1-350): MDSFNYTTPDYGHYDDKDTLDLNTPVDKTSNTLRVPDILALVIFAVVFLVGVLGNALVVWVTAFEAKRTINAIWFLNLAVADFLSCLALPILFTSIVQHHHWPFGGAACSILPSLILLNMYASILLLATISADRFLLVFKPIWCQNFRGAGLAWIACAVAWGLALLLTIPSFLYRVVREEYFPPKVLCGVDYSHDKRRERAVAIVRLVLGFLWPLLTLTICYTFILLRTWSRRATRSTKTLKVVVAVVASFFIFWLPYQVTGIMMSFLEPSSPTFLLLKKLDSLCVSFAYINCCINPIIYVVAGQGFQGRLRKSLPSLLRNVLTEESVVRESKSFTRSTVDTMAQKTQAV
Nature of the data set: C5a induced enzyme (glucosaminidase) release assay in RBL cells expressing the human C5a receptor (Example 28). It is filed as cell-based. The conditions noted are these: inhibition of C5a induced enzyme release, RBL cells with human C5aR; read-out: Activity-range (antagonistic activity, IC50 enzyme release). The gist of the method:
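Rat basophilic leukemia (RBL) cells expressing human C5a receptor, at 2×10^6 cells/ml, primed with cytochalasin B, then incubated with test compound 10 min at 37 °C.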

A short description of data set [2]: Solubility in aqueous HEPES buffer by HPLC (Example 33). It is filed as physicochemical. The settings on record: kinetic from dmso stock. As for the experimental part:
To determine the solubility the compound to be measured is dissolved (e.g, […] of a 5 mM solution in DMSO) in organic solvent (e.g. 198 μl DMSO) as well as in aqueous buffer solution (e.g. 198 μl HEPES buffer). Both solutions are analyzed via analytical HPLC and the areas under the peaks are compared. The value for the organic solution is taken as 100%.

In the next data set the target is T2, C5a receptor (Homo sapiens, UniProt P21730).
T2 sequence (P21730 1-350): T1 sequence (P21730 1-350)
Nature of the data set: Binding of 125I-C5a to human C5aR transfected HEK293 cells (Example 27). The conditions noted are these: 125I-C5a tracer, read-out: IC50 for the inhibition of the binding of C5a to the C5a receptor. More on the design: expressed in transfected cells; host or cells: HEK293 cells. How it is done: The binding studies are done as determination of IC50 values with radioactively labeled C5a (125I) as tracer. For this purpose, human C5aR transfected HEK293 cells are adjusted to a concentration of […]. 30 μl of the cell suspension are added into a microtiter plate. Then the C5a receptor antagonists are added followed by 10 minutes pre-incubation at room temperature. After that, 10 μl of labelled C5a are added (15.000 cpm). The mixture is now incubated over ice for 30 minutes. After this the cells are isolated by means of a filter plate (Millipore MHVB 4510) and washed two times with 100 μl HAG-CM each (see example 32). The cells are dried and, after transferring the filter plate onto the adapter plate (Canberra 6005178), 50 μl/well Microscint 0 are added and the plate is measured in the scintillation counter.

A short description of data set [3]: AB permeability in TC-7 cell based assay (Example 34). It is filed as in vitro ADME. The settings on record: human, Caco-2, TC-7 cells, apical pH 6.5 / basolateral pH 7.4, 120 min. How it is done: Compounds to be tested are prepared at a concentration of 50 μM in HBSS-MES (5 mM, pH 6.5) (from a 10 mM stock solution in 100% DMSO). ^14C-mannitol (about 4 μM) is added and the solution is mixed and centrifuged. The supernatant is added to the apical side of a TC-7 cell culture (passage 15, in 24 well transwell plate) to obtain a DMSO concentration of 1%. At the basolateral side HBSS-HEPES (5 mM, pH 7.4) is placed. Subsequently, the cells are incubated for 120 minutes at 37° C. The integrity of the TC-7 cell layer is checked by means of the added mannitol (Papp <2.5 10^−6 cm/s). The Permeabilität Papp [cm/s] is equal to (VR×CR120)/(Δt×A×(CD,mid−CR,mid)). VR is the volume of the receiver chamber, CR120 the concentration the test compound in the receiver chamber after 120 minutes, Δt the incubation time, A the area of the TC-7 cell layer, CD,mid the midpoint concentration of the test substance in the donor chamber and CR,mid the concentration of the test compound in the receiver chamber.

The term IC50 denotes the point on the concentration scale where inhibition reaches its midpoint. For orientation: solubility means the concentration that dissolves in the medium under given conditions. High values mean a readily soluble substance, low ones a poorly soluble substance. Turning to `CCc1c(N)cc(Cl)c(CC)c1NC(=O)N(Cc1ccc(Cl)cc1)c1ccc(CC(F)(F)F)cc1` [compound 103, 3-(3-amino-5-chloro-2,6-diethyl-phenyl)-1-(4-chloro-benzyl)-1-[4-(2,2,2-trifluoro-ethyl)-phenyl]-urea], the results for the IC50 (in data set [1]; on C5a receptor) were 60 to 200 nM and 58.6 nM, respectively. The same molecule gave a solubility in data set [2] of 7 µM (≈ 3.67 µg/mL).
As a reminder, the Papp A→B is the apparent permeability from the apical to the basolateral side of a cell layer. On to `CCc1ccc(N(C(=O)Nc2c(CC)c(N)cc(Cl)c2CC)C(C)c2ccc3c(c2)ncn3C)cc1` (stereo not drawn) [compound 122, 3-(3-amino-5-chloro-2,6-diethyl-phenyl)-1-(4-ethyl-phenyl)-1-[1-(1-methyl-1H-benzoimidazol-5-yl)-ethyl]-urea], for which the IC50 in data set [1] was 60 to 200 nM. In data set [2], the concentration in solution (solubility) came to 29 µM (≈ 14.6 µg/mL). For the same molecule, in data set [3], the Papp A→B at 120 min, 50 μM was found to be 3.5 ×10⁻⁶ cm/s.
For `CCc1ccc(N(Cc2ccc(C)nc2)C(=O)Nc2c(CC)c(N)cc(Cl)c2CC)cc1` [compound 106, 3-(3-amino-5-chloro-2,6-diethyl-phenyl)-1-(4-ethyl-phenyl)-1-(6-methyl-pyridin-3-ylmethyl)-urea] the same measures were 60 to 200 nM, 83 µM (≈ 37.4 µg/mL) and 22.3 ×10⁻⁶ cm/s.

Source of the values: patent publication US8071810B2, “C5a receptor antagonists” (Jerini AG, priority 2005, dated 2011).
